Reference: patent US20210261621A1, “Preparation of Dilipid Polymixins and Use Thereof as Antimicrobial Adjuvants” (priority 2018, published 2021)
In brackets after ≈: the same amount, converted by molar mass. Read-outs that look alike come from different tables or passages of the source. Positions of bridges follow the written chain, without caps; N, C: chain ends. Non-standard residues stand in square brackets, D forms with d. Residues, ends and D or L forms follow the SMILES beside them. *: point of attachment. Benzoyl(4-Ph) = O=C(c1ccc(-c2ccccc2)cc1)*; Dab = NCC[C@H](N)C(=O)O

How the values were obtained:
pig erythrocytes = assay: Hemolytic assay; settings: for % Hemolysis at 512 μg/mL of polymyxin / MHC5, minimum concentration that resulted in 5% red blood cell hemolysis: pig erythrocytes, 1 h at 37° C.
P. aeruginosa PAO1 = test system: P. aeruginosa PAO1; set-up: MICDrug / MICDrug in combo / MIC of adjuvant in combo: unit not given beside the values
[1] = test system: E. coli CANWARD-2011 97615; format: cell-based, Escherichia coli
Description: Bacterial strains were either obtained from the American Type Culture Collection (ATCC), Canadian National Intensive Care Unit (CAN-ICU) surveillance study or the Canadian Ward Surveillance (CANWARD) study. Strains from both CAN-ICU and CANWARD are isolates recovered from patients diagnosed with a presumed infectious disease that were admitted in a participating medical center across Canada. Efflux-deficient strain PAO200 (lacking MexAB-OprM efflux system) and PA0750 (lacking MexAB-OprM, MexCD-OprJ, MexEF-OprN, MexJK and MexXY efflux systems, and the outer membrane protein OpmH) were kindly gifted by Dr. Ayush Kumar (University of Manitoba).
The in vitro antibacterial activity of the compounds studied were assessed by broth microdilution susceptibility testing following CLSI guidelines. Bacterial cultures were grown overnight prior to the assay. The overnight grown cultures were diluted in saline to 0.5 McFarland turbidity, followed by 1:50 dilution in Mueller-Hinton broth (MHB) for inoculation to a final concentration of approximately 5×10^5 colony forming units/mL. Testing was performed on 96-well plates where the tested compounds were 2-fold serially diluted in MHB and incubated with equal volumes of bacterial inoculum at 37° C. for 18 h. […] Wells containing MHB with or without bacterial cells were used as positive or negative control, respectively.

[2] = combination with Chloramphenicol

## CC(C)C[C@@H]1NC(=O)[C@@H](Cc2ccccc2)NC(=O)[C@H](CCN)NC(=O)[C@@H](NC(=O)[C@H](CCN)NC(=O)[C@@H](NC(=O)[C@H](CCNC(=O)c2ccc(-c3ccccc3)cc2)NC(=O)c2ccc(-c3ccccc3)cc2)[C@@H](C)O)CCNC(=O)[C@H]([C@@H](C)O)NC(=O)[C@H](CCN)NC(=O)[C@H](CCN)NC1=O [Compound 5, Dibiphenyl-4-Carboxylic Acid (Di-Biphenyl) Polymyxin] ({Benzoyl(4-Ph)}-[Dab](Benzoyl(4-Ph))T[Dab][Dab][Dab][dF]L[Dab][Dab]T; lactam 4-C)
Pig erythrocytes
  % Hemolysis at 512 μg/mL of polymyxin: 13.1 ± 1.4%
  MHC5, minimum concentration that resulted in 5% red blood cell hemolysis: 128 µg/mL
P. aeruginosa PAO1; adjuvant alone, one value per checkerboard, in µg/mL
  MIC of adjuvant alone (MIC1, MIC2, MIC3, MIC4, MIC5, MICPMBN): 16
P. aeruginosa PAO1; combination with Aztreonam
  FIC index: 0.62
  Interpretation: Additive (An FIC index of ≤0.5, 0.5<x≤4, or >4 denotes for synergistic, additive or antagonistic interaction, respectively)
P. aeruginosa PAO1; combination with Ceftazidime
  FIC index: 0.62
  Interpretation: Additive (An FIC index of ≤0.5, 0.5<x≤4, or >4 denotes for synergistic, additive or antagonistic interaction, respectively)
P. aeruginosa PAO1; [2]
  FIC index: 0.50
  Interpretation: Synergy (An FIC index of ≤0.5, 0.5<x≤4, or >4 denotes for synergistic, additive or antagonistic interaction, respectively)
P. aeruginosa PAO1; combination with Ciprofloxacin
  FIC index: 1.00
  Interpretation: Additive (An FIC index of ≤0.5, 0.5<x≤4, or >4 denotes for synergistic, additive or antagonistic interaction, respectively)
P. aeruginosa PAO1; combination with Clindamycin
  FIC index: 0.53
  Interpretation: Additive (An FIC index of ≤0.5, 0.5<x≤4, or >4 denotes for synergistic, additive or antagonistic interaction, respectively)
P. aeruginosa PAO1; combination with Doripenem
  FIC index: 1.00
  Interpretation: Additive (An FIC index of ≤0.5, 0.5<x≤4, or >4 denotes for synergistic, additive or antagonistic interaction, respectively)
P. aeruginosa PAO1; combination with Doxycycline
  FIC index: 0.53
  Interpretation: Additive (An FIC index of ≤0.5, 0.5<x≤4, or >4 denotes for synergistic, additive or antagonistic interaction, respectively)
P. aeruginosa PAO1; combination with Fosfomycin
  FIC index: 0.56
  Interpretation: Additive (An FIC index of ≤0.5, 0.5<x≤4, or >4 denotes for synergistic, additive or antagonistic interaction, respectively)
P. aeruginosa PAO1; combination with Gentamicin
  FIC index: 2.01
  Interpretation: Additive (An FIC index of ≤0.5, 0.5<x≤4, or >4 denotes for synergistic, additive or antagonistic interaction, respectively)
P. aeruginosa PAO1; combination with Linezolid
  FIC index: 0.53
  Interpretation: Additive (An FIC index of ≤0.5, 0.5<x≤4, or >4 denotes for synergistic, additive or antagonistic interaction, respectively)
P. aeruginosa PAO1; combination with Meropenem
  FIC index: 1.00
  Interpretation: Additive (An FIC index of ≤0.5, 0.5<x≤4, or >4 denotes for synergistic, additive or antagonistic interaction, respectively)
P. aeruginosa PAO1; combination with Minocycline
  FIC index: 0.62
  Interpretation: Additive (An FIC index of ≤0.5, 0.5<x≤4, or >4 denotes for synergistic, additive or antagonistic interaction, respectively)
P. aeruginosa PAO1; combination with Moxifloxacin
  FIC index: 0.75
  Interpretation: Additive (An FIC index of ≤0.5, 0.5<x≤4, or >4 denotes for synergistic, additive or antagonistic interaction, respectively)
P. aeruginosa PAO1; combination with Novobiocin
  FIC index: 0.50
  Interpretation: Synergy (An FIC index of ≤0.5, 0.5<x≤4, or >4 denotes for synergistic, additive or antagonistic interaction, respectively)
P. aeruginosa PAO1; combination with Piperacillin
  FIC index: 1.00
  Interpretation: Additive (An FIC index of ≤0.5, 0.5<x≤4, or >4 denotes for synergistic, additive or antagonistic interaction, respectively)
P. aeruginosa PAO1; combination with Pleuromutilin
  Interpretation: Additive (An FIC index of ≤0.5, 0.5<x≤4, or >4 denotes for synergistic, additive or antagonistic interaction, respectively)
P. aeruginosa PAO1; combination with Rifampicin
  FIC index: 0.31
  Interpretation: Synergy (An FIC index of ≤0.5, 0.5<x≤4, or >4 denotes for synergistic, additive or antagonistic interaction, respectively)
P. aeruginosa PAO1; combination with Streptomycin
  FIC index: 1.00
  Interpretation: Additive (An FIC index of ≤0.5, 0.5<x≤4, or >4 denotes for synergistic, additive or antagonistic interaction, respectively)
P. aeruginosa PAO1; combination with Tobramycin
  FIC index: 1.01
  Interpretation: Additive (An FIC index of ≤0.5, 0.5<x≤4, or >4 denotes for synergistic, additive or antagonistic interaction, respectively)
P. aeruginosa PAO1; combination with Trimethoprim
  FIC index: 0.62
  Interpretation: Additive (An FIC index of ≤0.5, 0.5<x≤4, or >4 denotes for synergistic, additive or antagonistic interaction, respectively)
P. aeruginosa PAO1; combination with Vancomycin
  FIC index: 0.51
  Interpretation: Additive (An FIC index of ≤0.5, 0.5<x≤4, or >4 denotes for synergistic, additive or antagonistic interaction, respectively)
P. aeruginosa PAO1; in combination with Aztreonam
  MIC of adjuvant in combo: (8)
P. aeruginosa PAO1; in combination with Ceftazidime
  MIC of adjuvant in combo: (8)
P. aeruginosa PAO1; in combination with Chloramphenicol
  MIC of adjuvant in combo: (4)
P. aeruginosa PAO1; in combination with Ciprofloxacin
  MIC of adjuvant in combo: (8)
P. aeruginosa PAO1; in combination with Clindamycin
  MIC of adjuvant in combo: (8)
P. aeruginosa PAO1; in combination with Doripenem
  MIC of adjuvant in combo: (8)
P. aeruginosa PAO1; in combination with Doxycycline
  MIC of adjuvant in combo: (8)
P. aeruginosa PAO1; in combination with Fosfomycin
  MIC of adjuvant in combo: (8)
P. aeruginosa PAO1; in combination with Gentamicin
  MIC of adjuvant in combo: (0.25)
P. aeruginosa PAO1; in combination with Linezolid
  MIC of adjuvant in combo: (8)
P. aeruginosa PAO1; in combination with Meropenem
  MIC of adjuvant in combo: (8)
P. aeruginosa PAO1; in combination with Minocycline
  MIC of adjuvant in combo: (8)
P. aeruginosa PAO1; in combination with Moxifloxacin
  MIC of adjuvant in combo: (8)
P. aeruginosa PAO1; in combination with Novobiocin
  MIC of adjuvant in combo: (4)
P. aeruginosa PAO1; in combination with Piperacillin
  MIC of adjuvant in combo: (8)
P. aeruginosa PAO1; in combination with Pleuromutilin
  MIC of adjuvant in combo: (8)
P. aeruginosa PAO1; in combination with Rifampicin
  MIC of adjuvant in combo: (4)
P. aeruginosa PAO1; in combination with Streptomycin
  MIC of adjuvant in combo: (8)
P. aeruginosa PAO1; in combination with Tobramycin
  MIC of adjuvant in combo: (0.25)
P. aeruginosa PAO1; in combination with Trimethoprim
  MIC of adjuvant in combo: (8)
P. aeruginosa PAO1; in combination with Vancomycin
  MIC of adjuvant in combo: (8)
[1]
  MIC: 32 µg/mL (≈ 22.5 µM)

## colistin [reference compound]
Pig erythrocytes
  % Hemolysis at 512 μg/mL of polymyxin: 1.6 ± 0.5%
  MHC5, minimum concentration that resulted in 5% red blood cell hemolysis: >512 µg/mL
Pig erythrocytes; up to the highest concentration tested of 512 μg/mL
  hemolytic activity: no hemolytic activity
